For assay [1], the target named is T1, CK2α (Homo sapiens, UniProt P68400).
T1 construct: CK2α (residues 2-329) was produced in Escherichia coli BL21 (DE3) for kinase activity screening; His6 (N, cleaved yes); made in house; host or cells: Escherichia coli BL21 (DE3)
T1 sequence (P68400 2-329): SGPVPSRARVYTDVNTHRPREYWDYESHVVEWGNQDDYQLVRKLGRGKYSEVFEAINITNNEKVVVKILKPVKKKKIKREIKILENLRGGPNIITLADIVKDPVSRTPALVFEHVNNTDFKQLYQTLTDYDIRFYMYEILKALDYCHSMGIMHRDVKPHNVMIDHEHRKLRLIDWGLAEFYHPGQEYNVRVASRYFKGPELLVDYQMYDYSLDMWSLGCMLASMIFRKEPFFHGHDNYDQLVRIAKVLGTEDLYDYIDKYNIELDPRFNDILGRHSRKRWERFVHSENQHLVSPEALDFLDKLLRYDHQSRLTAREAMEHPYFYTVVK
The assay can be described thus: Biochemical assay for inhibitors of CK2α kinase activity (ADP-Glo). As to conditions: 0.2 nM CK2α, 50 μM peptide substrate, 15 μM ATP, read-out: Assay 1: CK2α Enzyme IC50. The protocol:
The inhibitory activity of putative kinase inhibitors and the potency of selected compounds were determined using ADP-Glo™ assay. The kinase reaction was performed in the presence of excess peptide substrate and ATP at a concentration equivalent to Km. Upon termination of the kinase reaction, remaining ATP was depleted leaving only ADP reaction product, which was converted back to ATP with a coupled luciferin/luciferase reaction. The luminescent output from the coupled reaction was quantified and correlated with the kinase activity. […] Single colonies of the cells were grown in 6×1 L of 2×TY with 100 μg/mL ampicillin at 37° C. […] The cells were incubated overnight at 25° C. then harvested by centrifugation at 4,000 g for 20 minutes. The cell pellets were suspended in 20 mM Tris, 500 mM NaCl, pH 8.0 and lysed using a high pressure homogenizer. Protease inhibitor cocktail tablets (one tablet per 50 mL extract; Roche Diagnostics) and DNase I were then added. The crude cell extract was then centrifuged at 10,000 g for 45 minutes, the supernatant was filtered with a 0.22 μm filter. The soluble supernatant was applied on a Ni Sepharose Fast Flow6 column at pH 8.0, washed and eluted in 20 mM Tris pH 8.0, 500 mM NaCl, 200 mM imidazole. […] The cleaved protein was further purified on a Sepharose Q HP anion-exchange column and the main peak fraction from this column was further purified by gel filtration on a Superdex 75 16/60 HiPrep column equilibrated with Tris 20 mM, pH 8.0, 500 mM NaCl. Pure protein was concentrated to 15 mg/mL and flash frozen in liquid nitrogen. […] The assay was conducted as follows: • 1. […] After 120 minutes, the reaction was stopped by addition of 5 pl ADP-Glo reagent (Promega V9102) and the plate incubated at RT for a further 60 minutes. • 5. 10 μL of Kinase Detection reagent (Promega V9102) was added to assay plate and incubated for a further 30 minutes prior to reading luminescence on an Envision (Perkin-Elmer). Data was analysed to calculate compound IC50and Ki as follows: • 1. […] Percent activity was calculated for each well using: (Test well reading−MEAN100%inhibition control wells)/(MEAN0% inhibition control wells−MEAN100%inhibition control wells). • 5. Morrison Ki was determined using Morrison Ki equation (XL-fit).
A general note: ADP-Glo first removes unused ATP, then detects ADP through luciferase.

Assay [2] addresses T2, CLK2 (Homo sapiens, UniProt P49760).
T2 construct: purchased Carna Biosciences 04-127
The assay can be described thus: Biochemical assay for inhibitors of CLK2 kinase activity (ADP-Glo). The following applies: 20 nM CLK2, 50 μM peptide substrate, 100 μM ATP, read-out: Assay 2: CLK2 Enzyme IC50. The protocol:
The inhibitory activity of putative kinase inhibitors and the potency of selected compounds were determined using ADP-GloTM assay. The kinase reaction was performed in the presence of excess peptide substrate and ATP at a concentration equivalent to Km. Upon termination of the kinase reaction, remaining ATP was depleted leaving only ADP reaction product, which was converted back to ATP with a coupled luciferin/luciferase reaction. The luminescent output from the coupled reaction was quantified and correlated with the kinase activity. […] The assay was conducted as follows: • 1. […] After 120 minutes, the reaction was stopped by addition of 5 pl ADP-Glo reagent (Promega V9102) and the plate incubated at RT for a further 60 minutes. • 5. 10 μL of Kinase Detection reagent (Promega V9102) was added to assay plate and incubated for a further 30 minutes prior to reading luminescence on an Envision (Perkin-Elmer). Data was analysed to calculate compound IC50and Ki as follows: • 1. […] Morrison Ki was determined using Morrison Ki equation (XL-fit).

Assay [3] has as its target T3, intracellular CK2α (Homo sapiens, UniProt P19784).
T3 construct: host or cells: HCT116 (ATCC CCL-247)
Put plainly: Cell-based NanoBRET assay for inhibitor binding to intracellular CK2α. The following applies: HCT116 cells transiently transfected with CSNK2A2-NanoLuc fusion vector; Tracer K-5; 2 h; read-out: Assay 3: NanoBRET ™ assay for binding to intracellular CK2α. The protocol:
This assay used the NanoBRET™ System (Promega), an energy transfer technique designed to measure molecular proximity in living cells. The assay measured the apparent affinity of test compounds by competitive displacement of a NanoBRET™ tracer reversibly bound to a NanoLucR luciferase CK2α fusion protein in cells. A fixed concentration of tracer was added to cells expressing the desired NanoLucR-CK2α fusion protein to generate a BRET reporter complex. […] Donor emission wavelength (450 nm) and acceptor emission wavelength (610 nm or 630 nm) were measured on the Envision (Perkin-Elmer) and BRET ratio calculated for data analysis: BRET Ratio=(Acceptorsample/Donorsample)×1,000. • 7.
A general note: In BRET a luciferase serves as donor, and the signal depends on an acceptor being close.

Some results are limits rather than exact numbers.

T2 sequence (P49760 whole entry): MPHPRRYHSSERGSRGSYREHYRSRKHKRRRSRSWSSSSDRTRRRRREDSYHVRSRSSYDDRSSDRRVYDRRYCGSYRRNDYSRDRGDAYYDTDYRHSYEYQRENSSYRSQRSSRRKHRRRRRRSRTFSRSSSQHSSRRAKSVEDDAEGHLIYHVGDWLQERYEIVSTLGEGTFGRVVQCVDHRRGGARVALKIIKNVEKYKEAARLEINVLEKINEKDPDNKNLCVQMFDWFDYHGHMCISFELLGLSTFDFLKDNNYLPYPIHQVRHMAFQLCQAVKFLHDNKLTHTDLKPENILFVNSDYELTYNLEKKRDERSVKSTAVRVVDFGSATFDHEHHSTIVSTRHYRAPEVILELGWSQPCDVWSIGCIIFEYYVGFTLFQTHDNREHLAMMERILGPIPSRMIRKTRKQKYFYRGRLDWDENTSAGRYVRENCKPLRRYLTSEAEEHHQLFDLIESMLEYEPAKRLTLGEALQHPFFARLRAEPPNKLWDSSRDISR
T3 sequence (P19784 whole entry): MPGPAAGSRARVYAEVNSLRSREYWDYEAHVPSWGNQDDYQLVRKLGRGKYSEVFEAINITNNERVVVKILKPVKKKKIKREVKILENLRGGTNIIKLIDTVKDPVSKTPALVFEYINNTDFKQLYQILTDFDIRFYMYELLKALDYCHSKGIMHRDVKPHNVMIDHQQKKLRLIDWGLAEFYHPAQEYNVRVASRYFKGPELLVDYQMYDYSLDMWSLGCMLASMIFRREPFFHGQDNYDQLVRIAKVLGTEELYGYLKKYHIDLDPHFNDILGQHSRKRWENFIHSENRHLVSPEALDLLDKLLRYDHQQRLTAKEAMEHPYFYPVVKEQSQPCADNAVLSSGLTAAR

Consider `N#Cc1cc(CNCCC(=O)NCCCNc2cc(-n3cnnc3)cc3[nH]ncc23)ccc1OC1CCC1` [Example 39, N-(3-((6-(4H-1,2,4-triazol-4-yl)-1H-indazol-4-yl)amino)propyl)-3-((3-cyano-4-cyclobutoxybenzyl)amino)propanamide], for which the IC50 in assay [1] worked out at 0.00028 µM; in assay [2] it was 0.0633 µM; in assay [3], 2.08 µM.
For `O=C(CCNCc1ccc(OC(F)(F)F)c(Cl)c1)NCCCNc1cc(-c2ccncc2)c(Cl)c2[nH]ncc12` [Example 158, 3-((3-chloro-4-(trifluoromethoxy)benzyl)amino)-N-(3-((7-chloro-6-(pyridin-4-yl)-1H-indazol-4-yl)amino)propyl)propanamide], the IC50 in assay [1] came out at 0.011 µM; in assay [2], 0.614 µM; in assay [3], 0.738 µM.
On the same counts, the results for `O=C(CCNCc1cc(Cl)cc(CO)c1)NCCCNc1cc(-n2cnnc2)cc2[nH]ncc12` [Example 43, N-(3-((6-(4H-1,2,4-triazol-4-yl)-1H-indazol-4-yl)amino)propyl)-3-((3-chloro-5-(hydroxymethyl)benzyl)amino)propanamide] are 0.00062 µM, 0.0384 µM and 20.2 µM.
Taken in the same sequence, the figures for `O=C(CCNCc1cccc(CCO)c1)NCCCNc1cc(-n2cnnc2)cc2[nH]ncc12` [Example 40, N-(3-((6-(4H-1,2,4-triazol-4-yl)-1H-indazol-4-yl)amino)propyl)-3-((3-(2-hydroxyethyl)benzyl)amino)propanamide] were 0.00906 µM, 0.0875 µM and more than 50 µM.
Take `N#Cc1cc(CNCCC(=O)NCCCNc2cc(-n3cnnc3)cc3[nH]ncc23)ccc1OC(F)(F)F` [Example 46, N-(3-((6-(4H-1,2,4-triazol-4-yl)-1H-indazol-4-yl)amino)propyl)-3-((3-cyano-4-(trifluoromethoxy)benzyl)amino)propanamide]: the results for the IC50 in assay [1], in assay [2] and in assay [3] were 0.00265 µM, 0.237 µM and 13.4 µM, respectively.
Taken in the same sequence, the figures for `FC(F)(F)c1ccc2[nH]c(CNCCCCOC3CN(c4cc(-n5cnnc5)cc5[nH]nnc45)C3)cc2c1` [Example 152, 4-((1-(6-(4H-1,2,4-triazol-4-yl)-1H-benzo[d][1,2,3]triazol-4-yl)azetidin-3-yl)oxy)-N-((5-(trifluoromethyl)-1H-indol-2-yl)methyl)butan-1-amine] were 0.0497 µM, 5.82 µM and more than 50 µM.
On the same counts, the results for `N#CCc1cc(CNCCCCOC2CN(c3cc(-n4cnnc4)cc4[nH]ncc34)C2)cc(C(F)(F)F)c1` [Example 105, 2-(3-(((4-((1-(6-(4H-1,2,4-triazol-4-yl)-1H-indazol-4-yl)azetidin-3-yl)oxy)butyl)amino)methyl)-5-(trifluoromethyl)phenyl)acetonitrile] are 0.0216 µM, 0.167 µM and 5.34 µM.
On the same counts, the results for `Fc1cc(CNCCCCOCCNc2cc(-c3ccncc3)c(Cl)c3[nH]ncc23)cc(F)c1OC(F)(F)F` [Example 166, 7-chloro-N-(2-(4-((3,5-difluoro-4-(trifluoromethoxy)benzyl)amino)butoxy)ethyl)-6-(pyridin-4-yl)-1H-indazol-4-amine] are 0.0213 µM, 0.783 µM and 2.67 µM.
As for `Cc1nc[nH]c1-c1cc(NCCCNC(=O)CCNCc2ccc(-c3ccccc3)c(Cl)c2)c2cn[nH]c2c1` [Example 91, 3-(((2-chloro-[1,1′-biphenyl]-4-yl)methyl)amino)-N-(3-((6-(4-methyl-1H-imidazol-5-yl)-1H-indazol-4-yl)amino)propyl)propanamide], the IC50 came to 0.00417 µM in assay [1], 0.979 µM in assay [2] and 4.59 µM in assay [3].
On the same counts, the results for `FC(F)(F)c1ccc2[nH]c(CNCCCCOCCOc3cc(-c4ccnnc4)cc4[nH]ncc34)cc2c1` [Example 56, 4-(2-((6-(pyridazin-4-yl)-1H-indazol-4-yl)oxy)ethoxy)-N-((5-(trifluoromethyl)-1H-indol-2-yl)methyl)butan-1-amine] are 0.00659 µM, 3.15 µM and 0.387 µM.
On the same counts, the results for `O=C(CCNCc1ccc(OC(F)(F)F)c(Cl)c1)NCCCOc1cc(-n2cnnc2)cc2[nH]ncc12` [Example 19, N-(3-((6-(4H-1,2,4-triazol-4-yl)-1H-indazol-4-yl)oxy)propyl)-3-((3-chloro-4-(trifluoromethoxy)benzyl)amino)propanamide] are 0.00313 µM, 0.574 µM and 5.07 µM.
On the same counts, the results for `O=C(CCNCc1ccc(OC2CCC2)c(CO)c1)NCCCNc1cc(-n2cnnc2)cc2[nH]ncc12` [Example 41, N-(3-((6-(4H-1,2,4-triazol-4-yl)-1H-indazol-4-yl)amino)propyl)-3-((4-cyclobutoxy-3-(hydroxymethyl)benzyl)amino)propanamide] are 0.00058 µM, 0.0781 µM and 7.62 µM.
Consider `Fc1cc(CNCCCCOCCNc2c(Cl)c(-n3cnnc3)cc3[nH]ncc23)cc(F)c1OC(F)(F)F` [Example 186, 5-chloro-N-(2-(4-((3,5-difluoro-4-(trifluoromethoxy)benzyl)amino)butoxy)ethyl)-6-(4H-1,2,4-triazol-4-yl)-1H-indazol-4-amine], for which the results for the IC50 in assay [1], in assay [2] and in assay [3] were 0.717 µM, 4.75 µM and more than 48.9 µM, respectively.
With `Cn1c(CNCCCCOCCNc2cc(-n3cnnc3)cc3[nH]ncc23)cc2ccc(Cl)cc21` [Example 50, N-(2-(4-(((6-chloro-1-methyl-1H-indol-2-yl)methyl)amino)butoxy)ethyl)-6-(4H-1,2,4-triazol-4-yl)-1H-indazol-4-amine], the IC50 in assay [1] was determined as 0.0022 µM; in assay [2], 0.094 µM; in assay [3] it was 0.153 µM.
On the same counts, the results for `COC(=O)CCc1cc(NCCOCCCCNCc2cc3cc(C(F)(F)F)ccc3[nH]2)c2cn[nH]c2c1` [Example 88, methyl 3-(4-((2-(4-(((5-(trifluoromethyl)-1H-indol-2-yl)methyl)amino)butoxy)ethyl)amino)-1H-indazol-6-yl)propanoate] are more than 1 µM, 41.3 µM and more than 50 µM.
